Results as given in patent US9999222B2, “Herbicidal combination comprising azines” (BASF SE, priority 2014, dated 2018).
Read-outs that look alike come from different tables or passages of the source.

How the values were obtained:
Assay in all cases: Greenhouse test, pre-emergence treatment
EPHHL = format: in vivo, Euphorbia heterophylla; conditions: Euphorbia heterophylla, pre-emergence, 480 h
Procedure, shortened: (§1)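 Seeds were sown in loamy sand with approximately 3.0% humus, then sprayed at once with actives suspended or emulsified in water. Pots were watered, hooded until rooting, held at 10-25° C. or 20-35° C. by species for 2 to 4 weeks, and scored 0 (no damage) to 100 (no emergence/complete destruction).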

POLCO = format: in vivo, Polygonum convolvulus; conditions: Fallopia convolvulus, pre-emergence, 480 h
Procedure, shortened: as §1

CENCY = format: in vivo; conditions: 480 h, individual, read-out: observed % activity 20 DAT
GERPU = format: in vivo, Geranium pusillum; conditions: Geranium pusillum, pre-emergence, 480 h
Procedure, shortened: as §1

IPOHE = format: in vivo, Ipomoea hederacea; conditions: Ipomoea hederacea, 480 h, 50 g ai/ha, 20 DAT, read-out: observed % activity
Procedure, shortened: as §1

GALAP = format: in vivo, Galium aparine; conditions: Galium aparine, pre-emergence, 480 h
Procedure, shortened: as §1

SIDRH = format: in vivo, Sida rhombifolia; conditions: 20 DAT
Procedure, shortened: as §1

COMBE = format: in vivo, Commelina benghalensis; conditions: Commelina benghalensis, pre-emergence, 480 h
Procedure, shortened: as §1

ABUTH = format: in vivo, Abutilon theophrasti; conditions: Abutilon theophrasti, 480 h, 25 g ai/ha, 20 DAT, read-out: observed % activity
Procedure, shortened: as §1

ANTAR = format: in vivo; conditions: Anthemis arvensis, 480 h, 20 DAT, read-out: observed % activity
Text: The culture containers used were plastic flowerpots containing loamy sand with approximately 3.0% of humus as the substrate. The seeds of the test plants were sown separately for each species.
For the pre-emergence treatment, the active ingredients, which had been suspended or emulsified in water, were applied directly after sowing by means of finely distributing nozzles. The containers were irrigated gently to promote germination and growth and subsequently covered with transparent plastic hoods until the plants had rooted. This cover caused uniform germination of the test plants, unless this had been impaired by the active ingredients.
Depending on the species, the plants were kept at 10-25° C. or 20-35° C., respectively.
The test period extended over 2 to 4 weeks. During this time, the plants were tended, and their response to the individual treatments was evaluated.
Evaluation was carried out using a scale from 0 to 100. 100 means no emergence of the plants, or complete destruction of at least the aerial moieties, and 0 means no damage, or normal course of growth. A moderate herbicidal activity is given at values of at least 60, a good herbicidal activity is given at values of at least 70, and a very good herbicidal activity is given at values of at least 85.
The respective stated components a and b, and if appropriate, c were formulated as a 10% by weight strength emulsion concentrate and, with addition of the amount of solvent system, introduced into the spray liquor used for applying the active compound.
In the examples, the solvent used was water.
In the examples below, using the method of S. R. Colby (1967) “Calculating synergistic and antagonistic responses of herbicide combinations”, Weeds 15, p. 22ff., the value E, which is expected if the activity of the individual active compounds is only additive, was calculated. E=X+Y−(X·Y/100) where • X=percent activity using active compound a at an application rate A; • Y=percent activity using active compound b at an application rate B; • E=expected activity (in %) by a+b at application rates A+B.
If the value found experimentally is higher than the value E calculated according to Colby, a synergistic effect is present.

KCHSC = format: in vivo, Kochia scoparia; conditions: Bassia scoparia, pre-emergence, 480 h, 20 DAT, read-out: observed % activity
Procedure, shortened: as §1

[1] = 25 g ai/ha, 20 DAT, read-out: observed % activity
[2] = 50 g ai/ha, 20 DAT, read-out: observed % activity

## CS(=O)(=O)c1ccc(C(=O)C2C(=O)CCCC2=O)c([N+](=O)[O-])c1 [Mesotrione, mesotrione]
EPHHL; [1]
  inhibition at 25 g/ha: 60%
EPHHL; [2]
  inhibition at 50 g/ha: 70%
EPHHL; EPHHL, individual, use rate 25 g ai/ha, read-out: observed % activity 20 DAT
  inhibition at 25 g/ha: 50%
EPHHL; EPHHL, individual, use rate 50 g ai/ha, read-out: observed % activity 20 DAT
  inhibition at 50 g/ha: 60%
POLCO; [1]
  inhibition at 25 g/ha: 20%
POLCO; [2]
  inhibition at 50 g/ha: 30%
POLCO; POLCO, individual, use rate 25 g ai/ha, read-out: observed % activity 20 DAT
  inhibition at 25 g/ha: 0%
POLCO; POLCO, individual, use rate 50 g ai/ha, read-out: observed % activity 20 DAT
  inhibition at 50 g/ha: 0%
CENCY; use rate 25 g ai/ha
  inhibition at 25 g/ha: 60%
CENCY; use rate 50 g ai/ha
  inhibition at 50 g/ha: 40%
GERPU; [1]
  inhibition at 25 g/ha: 0%
GERPU; [2]
  inhibition at 50 g/ha: 0%
GERPU; GERPU, individual, use rate 25 g ai/ha, read-out: observed % activity 20 DAT
  inhibition at 25 g/ha: 70%
IPOHE
  inhibition at 50 g/ha: 30%
GALAP; [2]
  inhibition at 50 g/ha: 75%
GALAP; GALAP, individual, use rate 25 g ai/ha, read-out: observed % activity 20 DAT
  inhibition at 25 g/ha: 65%
GALAP; GALAP, individual, use rate 50 g ai/ha, read-out: observed % activity 20 DAT
  inhibition at 50 g/ha: 80%
SIDRH; 25 g ai/ha
  observed % activity: 55%
SIDRH; Sida rhombifolia, pre-emergence, 480 h, 25 g ai/ha, read-out: observed % activity
  inhibition at 25 g/ha: 60%
SIDRH; Sida rhombifolia, pre-emergence, 480 h, 50 g ai/ha, read-out: observed % activity
  inhibition at 50 g/ha: 85%
COMBE; [1]
  inhibition at 25 g/ha: 65%
COMBE; [2]
  inhibition at 50 g/ha: 98%
COMBE; COMBE, individual, use rate 25 g ai/ha, read-out: observed % activity 20 DAT
  inhibition at 25 g/ha: 0%
COMBE; COMBE, individual, use rate 50 g ai/ha, read-out: observed % activity 20 DAT
  inhibition at 50 g/ha: 0%
ABUTH
  inhibition at 25 g/ha: 95%
ANTAR; 25 g ai/ha
  inhibition at 25 g/ha: 85%
ANTAR; 50 g ai/ha
  inhibition at 50 g/ha: 95%
KCHSC; 25 g ai/ha
  inhibition at 25 g/ha: 70%
KCHSC; 50 g ai/ha
  inhibition at 50 g/ha: 90%
